The results in this text go back to patent EP1853270B1, “PHARMACEUTICAL COMPOSITIONS COMPRISING NEP-INHIBITORS, INHIBITORS OF THE ENDOGENOUS ENDOTHELIN PRODUCING SYSTEM AND DIURETICS” (Solvay Pharmaceuticals GmbH, priority 2005, dated 2006).

Each structure is given as a SMILES string.

This assay has as its system spontaneously hypertensive rat. The assay is described as follows: Telemetric monitoring of blood pressure and heart rate in spontaneously hypertensive rats, compounds given via drinking water. It is filed as in vivo. Conditions: male SHR; for DBP: group mean change of 24 h mean diastolic blood pressure; for DBP / HR / SBP: day 23 (3 weeks of treatment) minus baseline (day 3), via drinking water, intended 10 mg/kg/day hydrochlorothiazide and/or 100 mg/kg/day daglutril, n=5 per group; for HR: group mean change of 24 h mean heart rate; for SBP: group mean change of 24 h mean systolic blood pressure; for effect on blood pressure: result in words, 3 weeks of treatment via drinking water, difference between groups significant (ANOVA, at least P<0.01). The text has this: Male spontaneously hypertensive rats (= SHR, insulin resistant strain from Charles River; aged 6 months) were equipped with telemetry transmitters for continuous monitoring of blood pressure and heart rate (TA11PA-C40. DSI, USA). Telemetry transmitters for continuous monitoring of blood pressure, heart rate and locomotor activity (TA11PA-C40, Data Sciences, USA) were implanted intraabdominally under inhalative halothane anesthesia. A midline abdominal incision was made, and the abdominal aorta was visualized by removal of retroperitoneal fat and connective tissue. A ligature was placed caudal of the renal arteries, the aorta was punctured with a 22G needle, and the catheter was advanced into the aorta. The entry point was sealed with tissue adhesive (Vetbond, 3M, USA), the ligature was removed, and the abdominal incision was closed. Measurements of aortic pressure were taken every 5 minutes (= min) for 4 seconds (= s) each at a sampling rate of 500 Hz, and were corrected for the corresponding ambient pressure (ambient pressure monitor, C11 PR, Data Sciences, USA).
After 3 days of monitoring under baseline (untreated) conditions, animals received daglutril via the drinking water. The intended daily dose was 100 mg/kg/day of daglutril.
In a second experiment, rats were divided into two treatment groups receiving hydrochlorothiazide or hydrochlorothiazide + daglutril. Compounds were administered via the drinking water, and daily drug intake was measured by weighing the water bottles thrice weekly. Intended daily doses were 10 mg/kg/day of hydrochlorothiazide plus, in the combination group, 100 mg/kg/day of daglutril.
Concentrations of hydrochlorothiazide and daglutril in the drinking water were adjusted once per week, in order to ensure the intended daily intake of 10 and 100 mg/kg, respectively.
The blood pressure, heart rate and activity values, sampled in 5 min intervals by the Dataquest™ system, were used for calculation of individual 24 hours (= h) -means. These 24 h means were exported to Excel, and group mean values of systolic blood pressure (= SBP), diastolic blood pressure (= DBP), heart rate (= HR), and locomotor activity (= ACT) were calculated for the daglutril, hydrochlorothiazide and the hydrochlorothiazide + daglutril groups. For the statistical analysis, a baseline value (pre) was calculated from the last day prior to compound application (day 3), and effects of daglutril, hydrochlorothiazide and hydrochlorothiazide + daglutril were calculated in relation to this baseline value (day 23, i.e. after 3 weeks of treatment, minus baseline value). The statistical comparison was done by using univariate ANOVA at an error level of P<0.05.

Turning to `NS(=O)(=O)c1cc2c(cc1Cl)NCNS2(=O)=O` [HCTZ, hydrochlorothiazide], the DBP is given as -7.7 mmHg, the HR was -4.5 min⁻¹, the SBP is -11.3 mmHg and the “effect on blood pressure” value is reported as “moderate decrease in blood pressure”.

Turning to `CCOC(=O)[C@H](CCc1ccccc1)CC1(C(=O)N[C@H]2CCc3ccccc3N(CC(=O)O)C2=O)CCCC1` [daglutril], the DBP was 2.0 mmHg, the HR was -6.0 min⁻¹, the SBP is listed as -0.3 mmHg and the “effect on blood pressure” value is listed as “no effect on blood pressure”.
